Values of other authors as cited in patent US6365131B1, “Pharmaceutical dental formulation for topical application of metronidazole benzoate, chlorhexidine gluconate and local anesthetic” (priority 1997, dated 2002).

SMILES | Time to peak effect (after the application to skin or mucosal surface) [min] | Onset of anesthesia (depending on the site of administration) | Duration of action (in words)
CCOC(=O)c1ccc(N)cc1 [Benzocaine, ethyl ester of p-Aminobenzoic acid] | ≤ 1 | – | –
CCN(CC)CC(=O)Nc1c(C)cccc1C [Lidocaine] | – | within a few minutes | intermediate duration of action
